Source: US8129538B1, “Renin inhibitors” (Takeda Pharmaceutical Company Limited, priority 2007, dated 2012)

molecular target: T1, Recombinant human renin (Homo sapiens, UniProt P00797); assay: In vitro enzymatic activity assay of renin inhibitors (fluorogenic peptide substrate); format: biochemical; conditions: recombinant human renin 3 nM, substrate 1 μM, 37° C., pH 7.4, fluorescence; read-out: IC50 of Exemplified Compounds Against Renin
T1 construct: isolate the active form (residues 67-406); made in house
T1 sequence (P00797 67-406): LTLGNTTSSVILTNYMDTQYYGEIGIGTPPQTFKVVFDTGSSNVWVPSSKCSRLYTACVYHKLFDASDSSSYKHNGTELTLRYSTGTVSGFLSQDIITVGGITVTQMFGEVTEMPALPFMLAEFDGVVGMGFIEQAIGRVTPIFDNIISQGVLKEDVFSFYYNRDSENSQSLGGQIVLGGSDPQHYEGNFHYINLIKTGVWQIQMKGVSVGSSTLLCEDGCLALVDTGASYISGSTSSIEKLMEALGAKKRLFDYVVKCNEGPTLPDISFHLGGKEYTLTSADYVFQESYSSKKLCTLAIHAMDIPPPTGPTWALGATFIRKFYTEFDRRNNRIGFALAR
Excerpt: Test compounds in varying concentrations may be reacted with recombinant human renin in the presence of substrate, e.g., QXL520-γ-Abu-Ile-His-Pro-Phe-His-Leu-Val-Ile-His-Thr-Lys (HiLyteFluo488)-Arg-OH (Anaspec, San Jose, Calif.). The reaction can be followed kinetically using fluorescence (excitation λ=485 nm; emission λ=538 nm) Inhibition constants (IC50) may be calculated by non-linear curve fitting of the compound concentrations and fluorescence intensities to the standard IC50 equation.
Solutions of test compounds in varying concentrations (≦2 mM final concentration) are prepared in dimethyl sulfoxide (DMSO) and then diluted into assay buffer comprising 50 mM Hepes, 1 mM EDTA, 1 mM DTT, 0.1 mg/mL BSA, 0.01% Brij35, pH 7.4. Alternatively, the assay can be performed with a high BSA concentration, wherein the buffer contains an additional 2% BSA.
Recombinant human renin (3 nM final concentration) is added to the dilutions and pre-incubated with the compounds for 10 minutes at 37° C. As described in Examples A-C above, human renin can be obtained by expressing preprorenin (residue 1-406) in mammalian cells, treating the prorenin (residues 24-406) contained in the culture supernatant with trypsin, and isolate the active form (residues 67-406). After pre-incubation, the reaction is initiated with 1 μM of substrate QXL520-γ-Abu-Ile-His-Pro-Phe-His-Leu-Val-Ile-His-Thr-Lys (HiLyteFluo488)-Arg-OH (Anaspec, San Jose, Calif.). The final DMSO in the assay is 5%. The total volume of the reaction mixture is 20 μL, which can be placed on Greiner 384-well small volume plates.
Renin activity may be determined via fluorescence (excitation λ=485 nm; emission λ=538 nm), e.g., on a Molecular Devices SPECTROmax GEMINI XPS. The fluorescence
intensity is determined upon the addition of substrate and determined again after incubation at 37° C. for one hour. The fluorescence intensity of a blank (no inhibition) using vehicle alone is also determined. Renin activity is linearly proportional to the change in fluorescence observed (final-initial).
The percent inhibition of renin at a given compound concentration is defined as: 100%×[1−(Fcompound/Fblank)] where Fcompound is the observed fluorescence at a given concentration of test compound and Fblank is the observed fluorescence in the presence of vehicle alone.
The pIC50 value (negative log of the molar concentration of the compound that produces 50% inhibition) of a test compound is calculated by non-linear least squares curve fitting of the equation: Percent Inhibition=100%/(1+(10−pIC50/10 log [I])) to percent inhibition versus compound concentration. The 50% inhibitory concentration (IC50) of a test compound is calculated by raising 10 to the negative pIC50 (10-pIC50).

Row | IC50 [nM] | SMILES
1 | > 1000 | O=C(C1=C(c2ccc(OCCOc3ccccc3Cl)cc2)CCNC1CO)N(Cc1cccc(Cl)c1Cl)C1CC1 (stereo not shown) [Compound 2, 4-(4-(2-(2-chlorophenoxy)ethoxy)phenyl)-N-cyclopropyl-N-(2,3-dichlorobenzyl)-2-(hydroxymethyl)-1,2,5,6-tetrahydropyridine-3-carboxamide]
2 | < 100 | O=C(C1=C(c2ccc(OCCOc3c(Cl)cccc3Cl)cc2)CCN[C@@H]1CO)N(Cc1cccc(Cl)c1Cl)C1CC1 [Compound 6, (S)-N-cyclopropyl-N-(2,3-dichlorobenzyl)-4-(4-(2-(2,6-dichlorophenoxy)ethoxy)phenyl)-2-(hydroxymethyl)-1,2,5,6-tetrahydropyridine-3-carboxamide]
3 | 100 to 1000 | COCOC[C@H]1NCCC(c2cccc(-c3ccccc3)c2)=C1C(=O)N(Cc1cccc(Cl)c1Cl)C1CC1 [Compound 4, (S)-4-(biphenyl-3-yl)-N-cyclopropyl-N-(2,3-dichlorobenzyl)-2-((methoxymethoxy)methyl)-1,2,5,6-tetrahydropyridine-3-carboxamide]
4 | > 1000 | COc1ccc(C2=C(C(=O)N(Cc3cccc(Cl)c3Cl)C3CC3)[C@@H](CO)NCC2)cc1 [Compound 13, (S)-N-cyclopropyl-N-(2,3-dichlorobenzyl)-2-(hydroxymethyl)-4-(4-methoxyphenyl)-1,2,5,6-tetrahydropyridine-3-carboxamide]
5 | > 1000 | O=C(C1=C(c2cccc(-c3ccccc3)c2)CCNC1CO)N(Cc1cccc(Cl)c1Cl)C1CC1 (stereo not shown) [Compound 1, 4-(biphenyl-3-yl)-N-cyclopropyl-N-(2,3-dichlorobenzyl)-2-(hydroxymethyl)-1,2,5,6-tetrahydropyridine-3-carboxamide]
6 | < 100 | COCOC[C@H]1NCCC(c2ccc(OCCOc3c(Cl)cccc3Cl)cc2)=C1C(=O)N(Cc1cccc(Cl)c1Cl)C1CC1 [Compound 5, (S)-N-cyclopropyl-N-(2,3-dichlorobenzyl)-4-(4-(2-(2,6-dichlorophenoxy)ethoxy)phenyl)-2-((methoxymethoxy)methyl)-1,2,5,6-tetrahydropyridine-3-carboxamide]
7 | > 1000 | O=C(C1=C(c2ccc(O)cc2)CCN[C@@H]1CO)N(Cc1cccc(Cl)c1Cl)C1CC1 [Compound 12, (S)-N-cyclopropyl-N-(2,3-dichlorobenzyl)-2-(hydroxymethyl)-4-(4-hydroxyphenyl)-1,2,5,6-tetrahydropyridine-3-carboxamide]
8 | < 100 | COCOC[C@H]1NCCC(c2ccc(OCCOc3c(Cl)cc(C)cc3Cl)cc2)=C1C(=O)N(Cc1cccc(Cl)c1Cl)C1CC1 [Compound 10, (S)-N-cyclopropyl-4-(4-(2-(2,6-dichloro-4-methylphenoxy)ethoxy)phenyl)-N-(2,3-dichlorobenzyl)-2-((methoxymethoxy)methyl)-1,2,5,6-tetrahydropyridine-3-carboxamide]
9 | < 100 | Cc1cc(Cl)c(OCCOc2ccc(C3=C(C(=O)N(Cc4cccc(Cl)c4Cl)C4CC4)[C@@H](CO)NCC3)cc2)c(Cl)c1 [Compound 9, (S)-N-cyclopropyl-4-(4-(2-(2,6-dichloro-4-methylphenoxy)ethoxy)phenyl)-N-(2,3-dichlorobenzyl)-2-(hydroxymethyl)-1,2,5,6-tetrahydropyridine-3-carboxamide]
10 | < 100 | Cc1cccc(C)c1OCCOc1ccc(C2=C(C(=O)N(Cc3cccc(Cl)c3Cl)C3CC3)[C@@H](CO)NCC2)cc1 [Compound 7, (S)-N-cyclopropyl-N-(2,3-dichlorobenzyl)-4-(4-(2-(2,6-dimethylphenoxy)ethoxy)phenyl)-2-(hydroxymethyl)-1,2,5,6-tetrahydropyridine-3-carboxamide]
11 | < 100 | O=C(C1=C(c2ccc(OCCOc3c(F)ccc(F)c3Cl)cc2)CCN[C@@H]1CO)N(Cc1cccc(Cl)c1Cl)C1CC1 [Compound 11, (S)-4-(4-(2-(2-chloro-3,6-difluorophenoxy)ethoxy)phenyl)-N-cyclopropyl-N-(2,3-dichlorobenzyl)-2-(hydroxymethyl)-1,2,5,6-tetrahydropyridine-3-carboxamide]
12 | 100 to 1000 | NC[C@H]1NCCC(c2ccc(OCCOc3c(Cl)cccc3Cl)cc2)=C1C(=O)N(Cc1cccc(Cl)c1Cl)C1CC1 [Compound 14, (S)-2-(aminomethyl)-N-cyclopropyl-N-(2,3-dichlorobenzyl)-4-(4-(2-(2,6-dichlorophenoxy)ethoxy)phenyl)-1,2,5,6-tetrahydropyridine-3-carboxamide]
13 | < 100 | COCOC[C@H]1NCCC(c2ccc(OCCOc3c(C)cccc3C)cc2)=C1C(=O)N(Cc1cccc(Cl)c1Cl)C1CC1 [Compound 8, (S)-N-cyclopropyl-N-(2,3-dichlorobenzyl)-4-(4-(2-(2,6-dimethylphenoxy)ethoxy)phenyl)-2-((methoxymethoxy)methyl)-1,2,5,6-tetrahydropyridine-3-carboxamide]
